Measurements taken from patent US20220041691A1, “METHODS FOR DIAGNOSING OR TREATING POST-TRAUMATIC STRESS DISORDER, AND COMPOSITIONS THEREFOR” (Centre for Addiction and Mental Health, priority 2018, published 2022).

T1: GR-FKBP51 complex (Mus musculus, UniProt Q64378)
T1 construct: from tissue; host or cells: C57Bl/6 mouse brain (acute slices; whole-brain lysate) and blood lymphocytes
T1 sequence (Q64378 1-456): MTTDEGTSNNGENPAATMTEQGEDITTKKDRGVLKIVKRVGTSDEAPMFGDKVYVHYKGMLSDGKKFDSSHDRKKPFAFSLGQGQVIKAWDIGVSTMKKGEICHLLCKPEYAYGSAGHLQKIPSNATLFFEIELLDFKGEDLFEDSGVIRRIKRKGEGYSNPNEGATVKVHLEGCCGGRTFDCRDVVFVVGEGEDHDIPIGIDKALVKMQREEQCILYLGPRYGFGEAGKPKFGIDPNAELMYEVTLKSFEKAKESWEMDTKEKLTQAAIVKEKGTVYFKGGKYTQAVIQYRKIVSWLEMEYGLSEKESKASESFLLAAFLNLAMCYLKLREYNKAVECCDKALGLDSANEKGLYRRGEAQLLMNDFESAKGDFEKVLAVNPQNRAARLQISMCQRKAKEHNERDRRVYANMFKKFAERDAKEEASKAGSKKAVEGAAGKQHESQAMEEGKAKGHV

T2: Flag-tagged GR S211E mutant (phosphomimetic GR mutant) (human, UniProt P04150 1-777)
T2 construct: also called S211E-GR; S211E GR; not shown: Flag tag
T2 sequence: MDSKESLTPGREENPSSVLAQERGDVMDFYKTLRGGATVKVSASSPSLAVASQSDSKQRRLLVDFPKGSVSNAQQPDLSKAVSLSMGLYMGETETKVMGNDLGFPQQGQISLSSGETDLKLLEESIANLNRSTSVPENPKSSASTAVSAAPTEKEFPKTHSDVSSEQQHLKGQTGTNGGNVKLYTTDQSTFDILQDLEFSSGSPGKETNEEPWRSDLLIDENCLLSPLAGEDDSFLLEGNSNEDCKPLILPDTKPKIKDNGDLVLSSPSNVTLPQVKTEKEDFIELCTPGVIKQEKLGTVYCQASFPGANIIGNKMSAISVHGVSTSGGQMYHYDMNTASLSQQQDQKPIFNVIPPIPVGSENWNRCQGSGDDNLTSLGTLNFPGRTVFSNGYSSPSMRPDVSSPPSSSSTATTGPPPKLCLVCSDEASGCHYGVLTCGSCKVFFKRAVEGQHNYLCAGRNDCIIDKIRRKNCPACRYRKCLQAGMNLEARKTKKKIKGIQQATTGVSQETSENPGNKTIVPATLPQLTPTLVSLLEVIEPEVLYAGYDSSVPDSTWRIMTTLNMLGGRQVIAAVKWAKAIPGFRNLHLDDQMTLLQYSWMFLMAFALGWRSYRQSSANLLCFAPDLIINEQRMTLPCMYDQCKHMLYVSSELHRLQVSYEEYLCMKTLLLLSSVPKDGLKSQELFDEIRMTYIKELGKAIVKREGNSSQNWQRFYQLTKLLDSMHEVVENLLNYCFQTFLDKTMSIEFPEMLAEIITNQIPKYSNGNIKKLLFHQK

T3: Flag-tagged GR S211A mutant (non-phosphorylated GR mutant) (human, UniProt P04150 1-777)
T3 construct: also called S211A-GR; S211A GR; not shown: Flag tag
T3 sequence: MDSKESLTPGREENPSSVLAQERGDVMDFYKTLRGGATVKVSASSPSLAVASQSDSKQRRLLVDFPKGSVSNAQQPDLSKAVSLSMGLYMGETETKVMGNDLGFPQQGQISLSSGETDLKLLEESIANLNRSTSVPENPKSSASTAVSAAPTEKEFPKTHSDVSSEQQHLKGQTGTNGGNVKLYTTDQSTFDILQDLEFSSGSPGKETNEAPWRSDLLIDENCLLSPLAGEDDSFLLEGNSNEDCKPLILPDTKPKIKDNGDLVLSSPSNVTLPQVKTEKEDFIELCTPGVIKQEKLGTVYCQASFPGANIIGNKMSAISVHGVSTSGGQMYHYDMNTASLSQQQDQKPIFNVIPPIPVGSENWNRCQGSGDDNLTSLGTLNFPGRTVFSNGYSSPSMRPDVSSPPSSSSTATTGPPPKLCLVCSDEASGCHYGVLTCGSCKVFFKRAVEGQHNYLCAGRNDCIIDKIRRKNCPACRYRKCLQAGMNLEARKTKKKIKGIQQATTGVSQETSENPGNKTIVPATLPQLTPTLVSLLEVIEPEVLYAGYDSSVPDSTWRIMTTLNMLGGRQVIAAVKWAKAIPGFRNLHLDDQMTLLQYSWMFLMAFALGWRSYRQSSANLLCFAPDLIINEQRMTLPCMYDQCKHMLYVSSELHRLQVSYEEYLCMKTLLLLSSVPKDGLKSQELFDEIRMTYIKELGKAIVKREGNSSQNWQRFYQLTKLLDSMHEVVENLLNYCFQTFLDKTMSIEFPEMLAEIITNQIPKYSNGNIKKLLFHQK

T4: Flag-tagged GR, wild-type (human, UniProt P04150 1-777)
T4 construct: Expressed in HEK293(T) cells; also called Flag-GR; WT-GR; not shown: Flag tag
T4 sequence: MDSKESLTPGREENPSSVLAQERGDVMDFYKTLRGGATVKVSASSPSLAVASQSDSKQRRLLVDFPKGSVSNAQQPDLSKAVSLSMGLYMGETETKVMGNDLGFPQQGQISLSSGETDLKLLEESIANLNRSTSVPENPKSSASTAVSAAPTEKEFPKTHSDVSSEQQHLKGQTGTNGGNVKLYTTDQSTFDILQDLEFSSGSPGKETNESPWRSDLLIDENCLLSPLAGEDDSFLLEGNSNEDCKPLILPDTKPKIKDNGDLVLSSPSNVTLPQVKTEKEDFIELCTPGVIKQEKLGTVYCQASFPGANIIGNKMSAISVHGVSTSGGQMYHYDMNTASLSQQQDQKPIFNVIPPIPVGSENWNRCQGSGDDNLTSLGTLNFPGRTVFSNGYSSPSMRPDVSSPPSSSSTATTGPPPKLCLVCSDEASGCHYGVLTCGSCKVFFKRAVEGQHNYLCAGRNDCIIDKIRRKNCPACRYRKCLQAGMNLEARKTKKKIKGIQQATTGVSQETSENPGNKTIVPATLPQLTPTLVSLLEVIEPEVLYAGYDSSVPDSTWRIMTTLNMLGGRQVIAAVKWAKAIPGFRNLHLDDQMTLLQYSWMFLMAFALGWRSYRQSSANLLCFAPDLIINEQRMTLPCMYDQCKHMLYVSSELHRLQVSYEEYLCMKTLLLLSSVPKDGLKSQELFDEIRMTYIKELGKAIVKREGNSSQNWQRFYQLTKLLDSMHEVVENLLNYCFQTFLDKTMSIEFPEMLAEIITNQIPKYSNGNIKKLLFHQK


Assays:
fear-conditioned mice = assay: Cued fear conditioning, systemic (i.p.) peptide delivery; format: in vivo, mouse; conditions: p<0.05
Protocol: Next, testing was performed to determine whether TAT-GRpep can block the emergence of PTSD-like fear-related behaviours when administrated systemically. Animals underwent five rounds of CS-US pairings followed by 5 days of extinction training before the expression of fear in response to the learned cue was assessed (FIG. 4A). Mice were injected with either TAT-GRpep or TAT intraperitoneally (3 nmol/g, i.p.) one hour before the test.
Furthermore, testing was performed to determine whether disrupting the GR-FKBP51 complex reduced consolidation of cued fear memory. Thus, TAT or TAT-GRpep was administered two hours after the end of fear conditioning training (FIG. 4C), before five consecutive daily extinction sessions of cue exposure without shock. […] This may therefore indicate a potential approach to both preventing and treating PTSD-like behaviour in the aftermath of trauma, for example.
Animals were first given a five-minute habituation to the apparatus (Habitest, Colbourne Instruments). Then, animals were exposed to 30 seconds of cue exposure (an in-house white light), which co-terminated with one second of foot-shock (0.5 mA). The cue exposure and foot-shock were repeated five times, intermitted by 5-minute inter-trial intervals. Following the conditioning, animals were subjected to 2-5 days of extinction before the assessment of their cued fear memory, which consisted of 15 rounds of 30-second cue exposure, with 30-second inter-trial intervals (adapted from Andero et al.).^48
The expression of fear (in a different context from training) was assessed 24 hours after the last extinction training. The assessment consisted of a three-minute period of habituation (absence of CS) and a sequent three-minute trial of conditioned cues. The duration of freezing behaviors was recorded by a blinded experimenter. Peptide treatment was either administered 2 hours after the conditioning or 30 minutes before the behavioral assessment.

GR-FKBP51 complex = biological target: T1, GR-FKBP51 complex; assay: Co-immunoprecipitation of GR-FKBP51 complex in brain and lymphocyte lysate of fear-conditioned mice injected with peptide; format: in vivo; conditions: brain lysate of fear-conditioned mice injected with TAT or TAT-GRpep; p<0.05, n=3
Protocol: Furthermore, testing was performed to determine whether disrupting the GR-FKBP51 complex reduced consolidation of cued fear memory. Thus, TAT or TAT-GRpep was administered two hours after the end of fear conditioning training (FIG. 4C), before five consecutive daily extinction sessions of cue exposure without shock.
(§1) Co-immunoprecipitation and Western blot analyses were performed as previously described.^24, 25, 26 For co-immunoprecipitation, 500˜1000 μg solubilized protein was extracted from whole mouse brain and incubated with primary antibody or control IgG (2˜4 μg) for 4 hrs at 4° C., followed by the addition of 25 μl protein A/G plus agarose (Santa Cruz Biotechnology) for 12 hrs. Pellets were washed, boiled for 5 min in SDS sample buffer and subjected to SDS-PAGE. 50˜100 μg of total protein extract was used as control in each experiment. After transfer of proteins into nitrocellulose, membranes were Western blotted with the primary antibodies. The intensity of protein level was quantified by densitometry (software: ImageLab, Bio-Rad).

[1] = system: GR phosphorylation at S211; assay: Western blot of GR phosphorylation at S211 in brain lysate of fear-conditioned mice; format: in vivo, mouse; conditions: brain lysate of fear-conditioned mice injected with TAT or TAT-GRpep; p<0.05, n=3
Text: To further investigate these findings, surface plasmon resonance (SPR) was used to estimate association and dissociation rates between GR and FKBP51. […] Thus, GR S211 phosphorylation seems to reduce GR affinity for FKBP51. Conversely, disruption of the GR-FKBP51 complex with TAT-GRpep could increase GR S211 phosphorylation, which is what was observed when comparing fear-conditioned mice treated with TAT-GRpep vs. TAT control or no treatment (FIG. 5 I-J).
as §1, with “Bio-Rad). […]” for “Bio-Rad).”

[2] = system: GR and FKBP52 colocalization in primary neurons; assay: Immunocytochemistry of GR and FKBP52 in primary mouse neurons; format: cell-based; conditions: primary neurons 8 DIV, 10 μM, 45 min
Protocol: Cortical tissues from embryonic day (E14) mouse brains were dissected out, incubated with 0.25% trypsin for 15 min at 37° C., and dissociated by mechanical trituration. Neurons were then plated at a desired density onto glass coverslips previously coated with 0.1 mg/ml poly-d-lysine, and grown in Neurobasal medium with 1× Glutamax, 1×B27, 100 U/ml penicillin and 100 μg/ml streptomycin in an incubator (37° C., 5% CO2). Either 10 μM of TAT-GRpep, 10 μM TAT-control peptide or saline were added in culture plates for 45 min in advance at 8 days in vitro (8 DIV).
Cultured neurons were fixed in 4% PFA/4% sucrose, permeabilized with 0.1M PBS containing 0.1% Triton X-100 for 10 min, and blocked for 1 hour with 1% bovine serum albumin in PBS at room temperature. They were incubated with primary antibodies overnight at 4° C. and secondary antibodies for 1 hour at room temperature. The following primary antibodies were used: anti-GR (1:200; Thermo), anti-FKBP51 (1:200; Abcam) and anti-FKBP52 (1:200; Abcam). […] DAPI was used to stain cell nuclei.

[3] = biological target: T2, Flag-tagged GR S211E mutant …; assay: SPR (Reichert SR7500DC, 25 C), FLAG-tagged GR captured on FLAG antibody-coated chip, GST-FKBP51_TPR injected
[4] = biological target: T3, Flag-tagged GR S211A mutant …; assay: as above
[5] = biological target: T4, Flag-tagged GR, wild-type; assay: as above

Molecule | duration of freezing with the CS (fear-conditioned mice; 3 nmol/g i.p. one hour before the test, after 5 days of extinction training, three-minute cue trial) | duration of freezing with the CS (consolidation of cued fear memory) (fear-conditioned mice; peptide administered two hours after end of fear conditioning, tested 24 hours after last of five daily extinction sessions) | GR-FKBP51 complex level in brain (co-immunoprecipitation) (GR-FKBP51 complex) | GR phosphorylation at S211 [1] | nuclear GR-FKBP52 colocalization [2] | Kd [3] | Kd [4] | Kd [5]
TAT: control peptide: cell-membrane transduction domain of the human immunodeficiency virus-type 1 TAT protein (GRKKRRQRRRPQ; Amino Acid Sequence of the Cell-Membrane Transduction Domain of HIV-Type 1 Transactivator of Transcription (TAT) Protein) [reference compound] | 64.2 ± 10.7 s | 71.0 ± 3.6 s | not | not | almost negligible amount of GR-FKBP52 complex |  |  | 
GST-FKBP51_TPR (GST fusion of the tetratricopeptide repeat domain of FKBP51) (other, also called GST-TPR; FKBP51 TPR domain; not shown: glutathione S-transferase (GST) tag; vector stated only for the GR fragments (pGEX-4T3)) EMDTKEKLEQAAIVKEKGTVYFKGGKYMQAVIQYGKIVSWLEMEYGLSEKESKASESFLLAAFLNLAMCYLKLREYTKAVECCDKALGLDSANEKGLYRRGEAQLLMNEFESAKGDFEKVLEVNPQNKAARLQISMCQKKAKEHNERDRRIYANMFKKFAEQDAKEEANKAMGKKTSEGVTNEKGTDSQAMEEEKPEGHV |  |  |  |  |  | 3.9 µM | 0.412 µM | 3.31 µM
